What was measured:
H9 = assay: Inhibitory activity […] in mock infected H9 cells; assay type: functional, cell-based; conditions: Homo sapiens
[1] = Concentration inhibiting HIV-1 replication by 50% in infected H9 lymphocyte cells; conditions: human, HIV-1-infected H9 lymphocyte cells
[2] = test system: Human immunodeficiency virus 1; assay: Inhibitory activity against HIV-1-induced syncytia determined by fusion assay; assay type: functional
[3] = test system: HIV-1 reverse transcriptase (Human immunodeficiency virus 1); assay: Inhibitory activity against HIV-RT; no inhibition
[4] = test system: Human immunodeficiency virus 1; assay: full Inhibitory activity against HIV-1-induced syncytia; assay type: functional

Structure (SMILES) | IC50 (H9) [µM] | EC50 [1] [µM] | IC100 [2] [µM] | IC50 [3] | IC100 [4] [µM]
C=C(C)[C@@H]1CC[C@]2(C(=O)O)CC[C@]3(C)[C@H](CC[C@@H]4[C@@]5(C)CC[C@H](OC(=O)COCC(=O)O)C(C)(C)[C@@H]5CC[C@]43C)[C@@H]12 | 11.7 | 0.01 | 70 |  | 
CC(C)[C@@H]1CC[C@]2(C(=O)O)CC[C@]3(C)[C@H](CC[C@@H]4[C@@]5(C)CC[C@H](OC(=O)CC(C)(C)C(=O)O)C(C)(C)[C@@H]5CC[C@]43C)[C@@H]12 | 4.9 | < 3.5 | 34 |  | 
CC(C)[C@@H]1CC[C@]2(C(=O)O)CC[C@]3(C)[C@H](CC[C@@H]4[C@@]5(C)CC[C@H](OC(=O)C(C)(C)CC(=O)O)C(C)(C)[C@@H]5CC[C@]43C)[C@@H]12 | 7.7 | 0.56 |  |  | 
CC(C)[C@@H]1CC[C@]2(C(=O)O)CC[C@]3(C)[C@H](CC[C@@H]4[C@@]5(C)CC[C@H](OC(=O)COCC(=O)O)C(C)(C)[C@@H]5CC[C@]43C)[C@@H]12 | 13.1 | 5.6 | 70 |  | 
C=C(C)[C@@H]1CC[C@]2(C(=O)O)CC[C@]3(C)[C@H](CC[C@@H]4[C@@]5(C)CC[C@H](OC(=O)CC(C)(C)CC(=O)O)C(C)(C)[C@@H]5CC[C@]43C)[C@@H]12 | 4.5 | 2.3 | 50 |  | 
CC(C)[C@@H]1CC[C@]2(C(=O)O)CC[C@]3(C)[C@H](CC[C@@H]4[C@@]5(C)CC[C@H](OC(=O)CC(C)(C)CC(=O)O)C(C)(C)[C@@H]5CC[C@]43C)[C@@H]12 | 5.8 | 5.7 | 33 |  | 
C=C(C)[C@@H]1CC[C@]2(C(=O)O)CC[C@]3(C)[C@H](CC[C@@H]4[C@@]5(C)CC[C@H](OC(=O)C(C)(C)CC(=O)O)C(C)(C)[C@@H]5CC[C@]43C)[C@@H]12 | 15.9 | 2.7 | 34 |  | 
C=C(C)[C@@H]1CC[C@]2(C(=O)NCCCCCCCC(=O)N[C@@H](CC(C)C)[C@@H](O)CC(=O)O)CC[C@]3(C)[C@H](CC[C@@H]4[C@@]5(C)CC[C@H](O)C(C)(C)[C@@H]5CC[C@]43C)[C@@H]12 | 2.7 | 0.03 |  | Not Active | 3
C=C(C)[C@@H]1CC[C@]2(C(=O)O)CC[C@]3(C)[C@H](CC[C@@H]4[C@@]5(C)CC[C@H](O)C(C)(C)[C@@H]5CC[C@]43C)[C@@H]12 [BETULINIC ACID] | 13 | 1.4 | >219 |  | 
C=C(C)[C@@H]1CC[C@]2(C(=O)O)CC[C@]3(C)[C@H](CC[C@@H]4[C@@]5(C)CC[C@H](OC(=O)CC(C)(C)C(=O)O)C(C)(C)[C@@H]5CC[C@]43C)[C@@H]12 [BEVIRIMAT] | 7 | < 3.5 | 34 |  | 
CC(C)[C@@H]1CC[C@]2(C(=O)O)CC[C@]3(C)[C@H](CC[C@@H]4[C@@]5(C)CC[C@H](O)C(C)(C)[C@@H]5CC[C@]43C)[C@@H]12 [DIHYDROBETULINIC ACID] | 12.6 | 0.9 |  |  | >218

— ChEMBL document CHEMBL1129502, “Betulinic acid and dihydrobetulinic acid derivatives as potent anti-HIV agents” (J Med Chem, 1996)
